Where two headings read alike, the source gives them in different places.
Key:
Assay type in all cases: in vivo
[1] = system: green peach aphid (Myzus persicae); test: Green peach aphid B.5.2, systemic, artificial diet under membrane; conditions: 72 h, read-out: mortality in comparison with untreated controls
Description: B.5.2. For evaluating control of green peach aphid (Myzus persicae) through systemic means the test unit consisted of 96-well-microtiter plates containing liquid artificial diet under an artificial membrane. The compounds were formulated using a solution containing 75% v/v water and 25% v/v DMSO. Different concentrations of formulated compounds were pipetted into the aphid diet, using a custom built pipetter, at two replications.
After application, 5-8 adult aphids were placed on the artificial membrane inside the microtiter plate wells. The aphids were then allowed to suck on the treated aphid diet and incubated at about 23±1° C. and about 50±5% relative humidity for 3 days. Aphid mortality and fecundity was then visually assessed.

[2] = system: Silverleaf Whitefly (Bemisia argentifolii) (Adults); test: Silverleaf whitefly adults, sprayed cotton plants; conditions: at 300, 3 days after treatment
Description: (§1) The active compounds were formulated in cyclohexanone as a 10,000 ppm solution supplied in tubes. The tubes were inserted into an automated electrostatic sprayer equipped with an atomizing nozzle and they served as stock solutions for which lower dilutions were made in 50% ace-tone:50% water (v/v). A non-ionic surfactant (Kinetic®) was included in the solution at a volume of 0.01% (v/v).
Cotton plants at the cotyledon stage (one plant per pot) were sprayed by an automated electrostatic plant sprayer equipped with an atomizing spray nozzle. The plants were dried in the sprayer fume hood and then removed from the sprayer. Each pot was placed into a plastic cup and about 10 to 12 whitefly adults (approximately 3-5 days old) were introduced. The insects were collected using an aspirator and a nontoxic Tygon® tubing connected to a barrier pipette tip. The tip, containing the collected insects, was then gently inserted into the soil containing the treated plant, allowing insects to crawl out of the tip to reach the foliage for feeding. Cups were covered with a reusable screened lid. Test plants were maintained in a growth room at about 25° C. and about 20-40% relative humidity for 3 days, avoiding direct exposure to fluorescent light (24-hour photoperiod) to prevent trapping of heat inside the cup. Mortality was assessed 3 days after treatment, compared to untreated control plants.

[3] = system: Green Peach Aphid (Myzus persicae, Mixed Life Stages); test: Green peach aphid B.5.1, sprayed bell pepper plants; conditions: 120 h, after 5 days, read-out: mortality in comparison with untreated controls
Procedure: B.5.1. The active compounds were formulated by a Tecan liquid handler in 100% cyclohexanone as a 10,000 ppm solution supplied in tubes. The 10,000 ppm solution was serially diluted in 100% cyclohexanone to make interim solutions. These served as stock solutions for which final dilutions were made by the Tecan in 50% acetone:50% water (v/v) into 10 or 20 ml glass vials. A nonionic surfactant (Kinetic®) was included in the solution at a volume of 0.01% (v/v). The vials were then inserted into an automated electrostatic sprayer equipped with an atomizing nozzle for application to plants/insects.
Bell pepper plants at the first true-leaf stage were infested prior to treatment by placing heavily infested leaves from the main colony on top of the treatment plants. Aphids were allowed to transfer overnight to accomplish an infestation of 30-50 aphids per plant and the host leaves were removed. The infested plants were then sprayed by an automated electrostatic plant sprayer equipped with an atomizing spray nozzle. The plants were dried in the sprayer fume hood, removed, and then maintained in a growth room under fluorescent lighting in a 24-hr photoperiod at about 25° C. and about 20-40% relative humidity. Aphid mortality on the treated plants, relative to mortality on untreated control plants, was determined after 5 days.

[4] = system: Southern Armyworm (Spodoptera eridania), 2nd Instar Larvae; test: Southern armyworm, sprayed lima bean plants; conditions: 96 h, 4 days after treatment, read-out: mortality in comparison with untreated controls
Procedure: as §1, with “nonionic” for “non-ionic”
Lima bean plants (variety sieva) were grown 2 plants to a pot and selected for treatment at the 1st true leaf stage. Test solutions were sprayed onto the foliage by an automated electrostatic plant sprayer equipped with an atomizing spray nozzle. The plants were dried in the sprayer fume hood and then removed from the sprayer. Each pot was placed into perforated plastic bags with a zip closure. About 10 to 11 armyworm larvae were placed into the bag and the bags zipped closed. Test plants were maintained in a growth room at about 25° C. and about 20-40% relative humidity for 4 days, avoiding direct exposure to fluorescent light (24 hour photoperiod) to prevent trapping of heat inside the bags. Mortality and reduced feeding were assessed 4 days after treatment, compared to untreated control plants.

[5] = system: Green Soldier Stink Bug (Nezara viridula); test: Green soldier stink bug, sprayed soybean pods in Petri dishes; conditions: 120 h, after 5 days, late 3rd instar, read-out: mortality in comparison with untreated controls
Procedure: The active compound was dissolved at the desired concentration in a mixture of 1:1 (vol:vol) distilled water:aceteone. Surfactant (Kinetic® HV) is added at a rate of 0.01% (vol/vol). The test solution was prepared at the day of use.
Soybean pods were placed in 90×50 mm glass Petri dishes lined with moist filter paper and inoculated with ten late 3rd instar N. viridula. Using a hand atomizer, an approximately 2 ml solution is sprayed into each Petri dish. Treated cups were kept at about 25-26° C. and relative humidity of about 65-70%. Percent mortality was recorded after 5 days.

[6] = system: tobacco budworm (Heliothis virescens); test: Tobacco budworm control, microtiter plate insect diet with eggs; conditions: 120 h, 5 days, read-out: mortality in comparison with untreated controls (egg and larval mortality)
Procedure: For evaluating control of tobacco budworm (Heliothis virescens) the test unit consisted of 96-well-microtiter plates containing an insect diet and 15-25 H. virescens eggs.
The compounds were formulated using a solution containing 75% v/v water and 25% v/v DMSO. Different concentrations of formulated compounds were sprayed onto the insect diet at 10 μl, using a custom built micro atomizer, at two replications.
After application, microtiter plates were incubated at about 28±1° C. and about 80±5% relative humidity for 5 days. Egg and larval mortality was then visually assessed.

[7] = system: vetch aphid (Megoura viciae); test: Vetch aphid, broad bean leaf disks, contact or systemic; conditions: foliar, 120 h, 5 days, read-out: mortality in comparison with untreated controls
Procedure: For evaluating control of vetch aphid (Megoura viciae) through contact or systemic means the test unit consisted of 24-well-microtiter plates containing broad bean leaf disks.
The compounds were formulated using a solution containing 75% v/v water and 25% v/v DMSO. Different concentrations of formulated compounds were sprayed onto the leaf disks at 2.5 μl, using a custom built micro atomizer, at two replications.
After application, the leaf disks were air-dried and 5-8 adult aphids placed on the leaf disks inside the microtiter plate wells. The aphids were then allowed to suck on the treated leaf disks and incubated at about 23±1° C. and about 50±5% relative humidity for 5 days. Aphid mortality and fecundity was then visually assessed.

[8] = system: Rice Brown Plant Hopper (Nilaparvata lugens); test: Rice brown plant hopper, sprayed rice seedlings; conditions: after 72 hours, adults, read-out: mortality in comparison with untreated controls
Procedure: (§2) Rice seedlings were cleaned and washed 24 hours before spraying. The active compounds were formulated in 50:50 acetone:water (vol:vol) and 0.1% vol/vol surfactant (EL 620) was added. Potted rice seedlings were sprayed with 5 ml test solution, air dried, placed in cages and inoculated with 10 adults. Treated rice plants were kept at about 28-29° C. and relative humidity of about 50-60%. Percent mortality was recorded after 72 hours.

[9] = system: Diamond Back Moth (Plutella xylostella); test: Diamond back moth, cabbage leaf dip; conditions: foliar, 72 hours after treatment, 3rd instar larvae, read-out: mortality in comparison with untreated controls
Procedure: (§3) The active compound is dissolved at the desired concentration in a mixture of 1:1 (vol:vol) distilled water:acetone. Surfactant (Alkamuls® EL 620) is added at a rate of 0.1% (vol/vol). The test solution is prepared at the day of use.
Leaves of cabbage were dipped in test solution and air-dried. Treated leaves were placed in petri dish enlined with moist filter paper and inoculated with ten 3rd instar larvae. Mortality was recorded 72 hours after treatment. Feeding damages were also recorded using a scale of 0-100%.

[10] = system: Rice Green Leafhopper (Nephotettix virescens); test: Rice green leafhopper, sprayed rice seedlings; conditions: after 72 hours, adults, read-out: mortality in comparison with untreated controls
Procedure: as §2, with “(vol:vol),” for “(vol:vol)”

[11] = system: Cowpea Aphid (Aphis craccivora); test: Cowpea aphid, sprayed potted cowpea plants; conditions: after 72 hours, read-out: mortality in comparison with untreated controls
Procedure: as §3
Potted cowpea plants were colonized with approximately 50-100 aphids of various stages by manually transferring a leaf tissue cut from infested plant 24 hours before application. Plants were sprayed after the pest population has been recorded. Treated plants are maintained on light carts at about 28° C. Percent mortality was assessed after 72 hours.

[12] = at 2500 ppm, 3 days, systemic, artificial diet

| SMILES | mortality at 2500 ppm [1] [%] | mortality at 2500 ppm [1, 12] [%] | mortality in comparison with untreated controls [2] | mortality at 300 ppm [3] [%] | mortality at 300 ppm [4] [%] | mortality at 300 ppm [5] [%] | mortality at 2500 ppm [6] [%] | mortality at 2500 ppm [7] [%] | mortality at 300 ppm [8] [%] | mortality at 300 ppm [9] [%] | mortality at 300 ppm [10] [%] | mortality at 300 ppm [11] [%] |
| --- | --- | --- | --- | --- | --- | --- | --- | --- | --- | --- | --- | --- |
| C[n+]1c2n(c([O-])c(-c3ccccc3)c1=O)C(c1cnc(Cl)s1)CN2 (centres unmarked) [Compound C-25] | > 75 |  |  |  |  |  |  |  |  |  |  |  |
| C[n+]1c([O-])c(-c2ccccc2)c(=O)n2c1N(C(=O)OC(C)(C)C)CC2c1cnc(Cl)s1 (centres unmarked) [Compound C-2] |  | > 75 |  |  |  |  |  |  |  |  |  |  |
| CN1CC(c2cnc(Cl)s2)n2c1[n+](C)c([O-])c(-c1cccc(C(F)(F)F)c1)c2=O (centres unmarked) [Compound C-5] |  | > 75 | over 75% | > 75 | > 75 | > 75 | > 75 | > 75 | > 75 | > 75 | > 75 | > 75 |
| CN1CC(c2cnc(Cl)s2)n2c1[n+](C)c([O-])c(-c1ccccc1)c2=O (centres unmarked) [Compound C-3] |  | > 75 |  |  |  |  | > 75 | > 75 | > 75 |  | > 75 | > 75 |
| CN1C[C@@H](c2cnc(Cl)s2)n2c1[n+](C)c([O-])c(-c1cccc(C(F)(F)F)c1)c2=O [Compound C-20] |  | > 75 |  |  | > 75 | > 75 |  | > 75 |  |  |  | > 75 |
| CN1CC(c2ccc(Cl)nc2)n2c1[n+](C)c([O-])c(-c1cc(Cl)cc(Cl)c1)c2=O (centres unmarked) [Compound C-21] | > 75 |  |  |  |  |  |  |  |  |  |  |  |
| CN1CC(c2cnc(Cl)s2)n2c1[n+](C)c([O-])c(-c1cc(Cl)cc(Cl)c1)c2=O (centres unmarked) [Compound C-4] |  | > 75 |  |  | > 75 |  | > 75 | > 75 | > 75 | > 75 | > 75 | > 75 |
| COc1ccc(-c2c([O-])n3c([n+](C)c2=O)N(C)CC3c2cnc(Cl)s2)cc1 (centres unmarked) [Compound C-1, 3-(2-chlorothiazol-5-yl)-6-(4-methoxyphenyl)-1,8-dimethyl-7-oxo-2,3-dihydroimidazo[1,2-a]pyrimidin-8-ium-5-olate] |  | > 75 |  |  |  |  |  |  |  |  |  | > 75 |

Source: patent publication US11399543B2, “Substituted 1,2,3,5-tetrahydroimidazo[1,2-a]pyrimidiniumolates for combating animal pests” (BASF SE, priority 2017, dated 2022)
